Measurements as given in patent publication US11833144B2, “Treating autoimmune disease” (Mayo Foundation for Medical Education and Research, priority 2020, dated 2023).

What was measured:
[1] = test system: murine B cells; assay: Murine B cell proliferation (CellTrace Violet, cell number) and class switch to IgG1 in vitro; assay type: cell-based, mouse; conditions: for proliferation of mouse B cells (CTV dilution) / B cell proliferation, exogenous fatty acid alone / IgG1 class switch, exogenous fatty acid alone: LPS/IL-4 activated; for proliferation of mouse B cells (CTV dilution): SCD inhibitor alone; for rescue of proliferation and IgG1 class switch upon SSI-4 treatment: SSI-4 with exogenous fatty acid; for B cell proliferation, exogenous fatty acid alone / IgG1 class switch, exogenous fatty acid alone: fatty acid-BSA conjugate, no inhibitor
Protocol: Mouse B cells were isolated from pooled single cell suspensions of spleen and peripheral lymph nodes using CD19 Microbeads (Miltenyi) or Mouse B cell Isolation Kit (Stemcell Technologies). B cells were stimulated with LPS (10 μg/mL; Sigma-Aldrich) and recombinant IL-4 cytokine (10 ng/mL; Tonbo Bioscience) with or without SCD inhibitor SSI-4, and proliferation was measured by dilution of CellTrace Violet proliferation dye (Thermo Fisher Scientific). B cells were also stimulated with anti-IgM (10 μg/mL; Jackson ImmunoResearch), anti-CD40 (10 μg/mL; BioXcell) and IL-4 (10 ng/mL; Tonbo Bioscience), or TLR ligand CpG (2.5 μM; IDT), recombinant IL-4 and IL-5 (10 ng/mL; Tonbo Bioscience) cytokines. To test the function of monounsaturated and saturated fatty acids, B cells were activated in presence of exogenous fatty acid-BSA conjugate. Palmitoleic acid (NU-CHEK PREP, INC), palmitic acid (NU-CHEK PREP, INC), stearic acid (NU-CHEK PREP, INC) were conjugated with fatty acid free BSA (Sigma-Aldrich) as described elsewhere (Wang et al., Immunity 35:871-882 (2011)). Human B cells were activated with CpG OND2006 (2.5 μM; IDT), recombinant human cytokine IL-10 ([…]; Peprotech), IL-15 (10 ng/mL; Peprotech), IL-4 (10 ng/mL; Biolegend), IL-2 (10 unit/mL) and anti-human CD40 (1 μg/mL; BioXcell). Human B cell proliferation was measured by ^3[H]-thymidine incorporation (1 μCi/mL) (American Radiolabeled Chemicals). For analysis of surface markers, cells were stained in PBS containing 1% (w/v) bovine serum albumin on ice for 30 minutes, with anti-IgG1 (RMG1-1, Biolegend), anti-CD19 (ID3, Biolegend) anti-B220 (RA3-6B2, Biolegend), anti-CD4 (GK1.5, Biolegend), anti-CD8 (53-6.7, Biolegend), anti-CD25 (PC16, Biolegend), anti-GL7 (GL-7, Biolegend), anti-CD95 (Jo2, BD Biosciences), anti-CD138 (281-2, Biolegend), anti-IgD (11-26c.2a, Biolegend), anti-PD-1 (J43, ThermoFisher), anti-IgM (II/41, ThermoFisher). Antigen specific GC response was detected with tetramer NP-phycoerythrin conjugated with PE (Biosearch Technologies). CXCR5 was stained with biotinylated anti-CXCR5 (2G8) followed by staining with streptavidin-conjugated PE (both from BD Biosciences). Cell viability was assessed using the Fixable Dye Ghost 510 (Tonbo Bioscience) or Annexin V cell apoptosis kit with 7-AAD (ThermoFisher) following the manufacturer's protocol. Phosflow staining for phospho-S6 (S235/236) was performed using Phosflow Fix/Perm kit (BD Biosciences). Mitochondrial potential was measured by staining with 20 nM TMRM (ThermoFisher) following manufacturer's instructions. Flow cytometry was performed on the LSR II, LSR Fortessa (BD Biosciences) or Attune NxT (ThermoFisher) cytometers, and analysis was performed using FlowJo software (Tree Star).

[2] = test system: activated murine B cells; assay: Seahorse OCR / ECAR in activated murine B cells; assay type: cell-based, mouse; conditions: exogenous fatty acid, 48 h
Protocol: (§1) The bioenergetic activities of the OCR and ECAR were measured using a Seahorse XFe96 Extracellular Flux Analyzed following established protocols (Agilent). Briefly, B cells were seeded at 200,000 cells/well on Cell-Tak (Corning) coated XFe96 plate with fresh XF media (Seahorse XF RPMI medium containing 10 mM glucose, 2 mM L-glutamine, and 1 mM sodium pyruvate, PH 7.4; all reagents from Agilent). OCR was measured in the presence of Oligomycin (1.5 μM; Sigma-Aldrich), FCCP (1.5 μM; Sigma-Aldrich), and Rotenone (1 μM; Sigma-Aldrich)/Antimycin A (1 μM; Sigma-Aldrich) in Mito Stress assay. For ECAR measurement, B cells were seeded in XFe96 plate with fresh Seahorse XF RPMI medium with 2 mM L-glutamine (PH 7.4), and treated with glucose (10 mM; Agilent), Oligomycin (1.5 and 2-DG (50 mM; Sigma-Aldrich) orderly in Glycolysis Stress assay.

[3] = test system: activated human B cells; assay: Seahorse OCR / ECAR in activated human B cells; assay type: cell-based; conditions: exogenous fatty acid, 72 hours
Protocol: as §1

## Cn1cnc(N)c2ncnc1-2 [3-MA, 3-methyladenine, reference compound]
[1]; 3-MA 1 mM, wortmannin 1 μM
  rescue of B cell proliferation and class switch to IgG1 in the presence of SSI-4: successfully rescued

## CNC(=O)c1cccc(NC(=O)N2CCC(Oc3ccccc3Cl)CC2)c1 [A939572, reference compound]
[1]
  proliferation of mouse B cells (CTV dilution): capable of inhibiting B cell proliferation

## Cc1nnc(-c2ccc(N3CCC(Oc4ccccc4C(F)(F)F)CC3)nn2)s1 [MF438, reference compound]
[1]
  proliferation of mouse B cells (CTV dilution): capable of inhibiting B cell proliferation

## CCCCCCCCCCCCCCCC(=O)O [PA, palmitic acid]
[1]; LPS/IL-4
  rescue of proliferation and IgG1 class switch upon SSI-4 treatment: no rescue effects
[1]
  B cell proliferation, exogenous fatty acid alone: unable to promote
  IgG1 class switch, exogenous fatty acid alone: unable to promote

## CCCCCC/C=C\CCCCCCCC(=O)O [PO, palmitoleic acid]
[1]; B cells from Scd1 and Scd2 deficient mice, LPS/IL-4
  rescue of proliferation and IgG1 class switch in SCD1/2 deficient B cells: partial rescue effect
[1]; LPS/IL-4
  rescue of proliferation and IgG1 class switch upon SSI-4 treatment: substantial, but incomplete, rescue effects
[1]
  IgG1 class switch, exogenous fatty acid alone: did not improve class switch
[2]
  OCR upon LPS/IL-4 stimulation in mouse B cells: did enhance OCR
[2]; CpG/IL-4/IL-5 (PO: CpG and anti-IgM/anti-CD40) stimulation
  B cell respiration (OCR): did not promote respiration
[3]
  respiration (OCR) in activated human B cells: did enhance OCR

## CCCCCCCCCCCCCCCCCC(=O)O [SA, stearic acid]
[1]; LPS/IL-4
  rescue of proliferation and IgG1 class switch upon SSI-4 treatment: no rescue effects
[1]
  B cell proliferation, exogenous fatty acid alone: unable to promote
  IgG1 class switch, exogenous fatty acid alone: unable to promote

## CCOC(=O)[C@@]1(CCCCCCOc2ccc(Cl)cc2)CO1 [etomoxir, reference compound]
[1]; OA plus etomoxir 40 μM, 72 hours
  effect of OA treatment on class switch in presence of etomoxir: negated the effects of OA treatment
[1]; etomoxir 40 μM, LPS/IL-4, 72 hours
  B cell class switch to IgG1: reduced B cell class switch
